{"source": "patent US4350704A", "about": "“Substituted acyl derivatives of octahydro-1H-indole-2-carboxylic acids” (Warner-Lambert Company, priority 1981, dated 1982)", "note": "Structures can show the parent of a compound that is named as a salt.", "data": [{"molecular_target": "T1, guinea pig serum ACE (Cavia porcellus, UniProt H0UWL7)", "T1 construct": "ACE from guinea pig serum; from tissue; host or cells: guinea pig serum", "T1 sequence (H0UWL7 33-1302)": "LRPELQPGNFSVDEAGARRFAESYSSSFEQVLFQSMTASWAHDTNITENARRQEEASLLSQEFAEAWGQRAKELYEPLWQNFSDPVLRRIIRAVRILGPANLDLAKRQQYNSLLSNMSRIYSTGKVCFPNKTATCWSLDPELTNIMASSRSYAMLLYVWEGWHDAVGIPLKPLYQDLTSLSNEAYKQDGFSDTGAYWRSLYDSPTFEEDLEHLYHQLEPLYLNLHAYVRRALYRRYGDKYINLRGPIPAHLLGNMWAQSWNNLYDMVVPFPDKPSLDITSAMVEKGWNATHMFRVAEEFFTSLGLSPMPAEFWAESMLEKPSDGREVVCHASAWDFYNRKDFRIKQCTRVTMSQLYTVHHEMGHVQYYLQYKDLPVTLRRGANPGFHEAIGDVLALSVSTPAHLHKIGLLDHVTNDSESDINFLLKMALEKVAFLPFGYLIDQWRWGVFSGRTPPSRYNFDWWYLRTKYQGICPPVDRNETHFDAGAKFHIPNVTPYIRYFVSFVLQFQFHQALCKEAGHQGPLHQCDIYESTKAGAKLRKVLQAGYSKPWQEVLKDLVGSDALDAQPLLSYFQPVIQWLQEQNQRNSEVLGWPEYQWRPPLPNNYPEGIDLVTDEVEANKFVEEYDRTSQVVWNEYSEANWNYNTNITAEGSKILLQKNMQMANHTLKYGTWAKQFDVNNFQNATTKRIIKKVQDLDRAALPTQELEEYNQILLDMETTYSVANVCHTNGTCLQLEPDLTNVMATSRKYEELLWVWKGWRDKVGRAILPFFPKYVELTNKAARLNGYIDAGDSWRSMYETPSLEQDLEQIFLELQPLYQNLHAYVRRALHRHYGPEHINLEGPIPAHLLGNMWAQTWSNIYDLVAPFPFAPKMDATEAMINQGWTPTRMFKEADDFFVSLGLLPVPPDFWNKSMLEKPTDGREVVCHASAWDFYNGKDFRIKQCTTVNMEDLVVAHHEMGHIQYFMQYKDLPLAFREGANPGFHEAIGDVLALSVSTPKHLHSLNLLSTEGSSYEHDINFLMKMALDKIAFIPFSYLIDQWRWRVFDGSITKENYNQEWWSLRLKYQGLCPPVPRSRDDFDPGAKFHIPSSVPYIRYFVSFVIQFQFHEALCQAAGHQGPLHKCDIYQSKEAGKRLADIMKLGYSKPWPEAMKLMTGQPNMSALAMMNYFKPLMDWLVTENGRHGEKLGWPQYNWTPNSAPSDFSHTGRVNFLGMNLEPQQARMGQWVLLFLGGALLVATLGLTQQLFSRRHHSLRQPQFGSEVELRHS", "assay": "In vitro ACE Assay: angiotensin converting enzyme inhibitory activity", "assay_type": "biochemical", "conditions": "10 min preincubation, 3H-hippuryl-glycylglycine substrate, 60 minute incubation at 37° C., read-out: IC50, Activity of Compounds of Formula V", "description": "In vitro ACE Assay: Angiotensin converting enzyme (ACE) inhibitory activity is determined by assaying guinea pig serum ACE in the presence and absence of the test compound. ACE from guinea pig serum and the test compounds are preincubated for 10 minutes before the addition of the labelled substrate ^3 H-hippuryl-glycylglycine. […] ACE cleaves the hippuryl-glycyl bond to form the dipeptide glycyl-glycine and ^3 H-hippuric acid. The ^3 H-hippuric acid is then extracted with ethyl acetate and the ACE inhibition of a given sample calculated on the basis of the ^3 H-hippuric acid generated.", "units": {"IC50": "µM"}, "values": [{"smiles": "CCOC(=O)[C@@H]1C[C@@H]2CCCC[C@@H]2N1C(=O)CCSC(C)=O", "note": "(relative stereo) [V: R=C2H5; R1=H; R2=CH3CO; --, Ethyl (2α, 3aβ, 7aβ)-Octahydro-1-[3-(acetylthio)propanoyl]-1H-indole-2-carboxylate]", "IC50": 3.8}, {"smiles": "CC(C)(C)C(=O)SCCC(=O)N1[C@H](C(=O)O)C[C@@H]2CCCC[C@@H]21", "note": "(relative stereo) [V: R=H; R1=H; R2=(CH3)3CCO; dl]", "IC50": 0.058}, {"smiles": "CC(=O)SCCC(=O)N1[C@H](C(=O)O)C[C@@H]2CCCC[C@@H]21", "note": "(relative stereo) [V: R=H; R1=H; R2=CH3CO; --, (2α, 3aβ, 7aβ)-Octahydro-1-[3-(acetylthio)propanoyl]-1H-indole-2-carboxylic Acid]", "IC50": 0.45}, {"smiles": "O=C(O)[C@@H]1C[C@@H]2CCCC[C@@H]2N1C(=O)CCS", "note": "(relative stereo) [V: R=H; R1=H; R2=H; --, (2α, 3aβ, 7aβ)-Octahydro-1-(3-mercaptopropanoyl)-1H-indole-2-carboxylic Acid]", "IC50": 0.021}, {"smiles": "CC(CS)C(=O)N1[C@H](C(=O)O)C[C@@H]2CCCC[C@@H]21", "note": "(single isomer, unassigned; diastereomer a) [V: R=H; R1=CH3; R2=H; l, A, (1)-(2α, 3aβ, 7aβ)-Octahydro-1-(3-mercapto-2-methylpropanoyl)-1H-2-carboxylic Acid (Diastereomer A), Dicyclohexylamine Salt]", "IC50": 0.0052}, {"smiles": "CC(CSC(=O)c1ccccc1)C(=O)N1[C@H](C(=O)O)C[C@@H]2CCCC[C@@H]21", "note": "(single isomer, unassigned; diastereomer a) [V: R=H; R1=CH3; R2=PhCO; l, A, (1)-(2α, 3aβ, 7aβ)-Octahydro-1-[3-(benzoylthio)-2-methylpropanoyl]-1H-indole-2-carboxylic Acid (Diastereomer A)]", "IC50": 0.54}]}]}
